Measurements from patent US5977063A, “Alkylated hexapeptides” (Eli Lilly and Company, priority 1998, dated 1999).

Experiments:
Assay type in all cases: cell-based
[1] = tested on: Streptococcus pneumoniae P1; experiment: MIC, standard broth micro-dilution assay, SPN P1; parameters: unit not given here
Procedure: (§1) The antibacterial efficacy of the present compounds is illustrated by Table II. The minimal inhibitory concentrations (MICs) were determined using a standard broth micro-dilution assay.

[2] = tested on: Staphylococcus aureus 447; experiment: MIC, standard broth micro-dilution assay, SA 447; parameters: unit not given here
Procedure: as §1

[3] = tested on: Enterococcus faecium and faecalis (SENSITIVE); experiment: MIC, standard broth micro-dilution assay, SENSITIVE enterococci; parameters: unit not given here; details: geometric mean of 4-6 isolates
Procedure: as §1

[4] = tested on: Enterococcus faecium and faecalis (RESISTANT); details: geometric mean of 4-6 isolates
Procedure: as §1

[5] = tested on: Staphylococcus haemolyticus 415; experiment: MIC, standard broth micro-dilution assay, SH 415; parameters: unit not given here
Procedure: as §1

[6] = tested on: Staphylococcus aureus 489; experiment: MIC, standard broth micro-dilution assay, SA 489; parameters: unit not given here
Procedure: as §1

[7] = tested on: Staphylococcus haemolyticus 105; experiment: MIC, standard broth micro-dilution assay, SH 105; parameters: unit not given here
Procedure: as §1

[8] = tested on: Staphylococcus epidermidis 270; experiment: MIC, standard broth micro-dilution assay, SE 270; parameters: unit not given here
Procedure: as §1

[9] = tested on: Staphylococcus aureus 446; experiment: MIC, standard broth micro-dilution assay, SA 446; parameters: unit not given here
Procedure: as §1

[10] = tested on: Streptococcus pyogenes C203; experiment: MIC, standard broth micro-dilution assay, SPY C203; parameters: unit not given here
Procedure: as §1

Row | SMILES | Minimal Inhibitory Concentration (MIC) SPN P1 [1] | Minimal Inhibitory Concentration (MIC) SA 447 [2] | Minimal Inhibitory Concentration (MIC) SENSITIVE [3] | Minimal Inhibitory Concentration (MIC) RESISTANT [4] | Minimal Inhibitory Concentration (MIC) SH 415 [5] | Minimal Inhibitory Concentration (MIC) SA 489 [6] | Minimal Inhibitory Concentration (MIC) SH 105 [7] | Minimal Inhibitory Concentration (MIC) SE 270 [8] | Minimal Inhibitory Concentration (MIC) SA 446 [9] | Minimal Inhibitory Concentration (MIC) SPY C203 [10]
1 | C[C@@H]1O[C@@H](O[C@@H]2c3ccc(c(Cl)c3)Oc3cc4cc(c3O[C@@H]3O[C@H](CO)[C@@H](O)[C@H](O)[C@H]3O[C@H]3C[C@](C)(NCc5ccc(-c6ccccc6)cc5)[C@@H](O)[C@H](C)O3)Oc3ccc(cc3Cl)[C@@H](O)[C@@H](NCCCCCCc3ccccc3)C(=O)N[C@@H](CC(N)=O)C(=O)N[C@H]4C(=O)N[C@H]3C(=O)N[C@@H]2C(=O)N[C@H](C(=O)O)c2cc(O)cc(O)c2-c2cc3ccc2O)C[C@](C)(N)[C@H]1O [Example 20, N^1 -(6-PHENYL-n-HEXYL)-N^DISACC -(p-PHENYLBENZYL)-DESLEUCYL-A82846B] | ≤ .06 | 4 | 11 | 64 | 1 | 4 | 1 | 1 | 4 | ≤ .06
2 | C[C@@H]1O[C@@H](O[C@H]2[C@H](Oc3c4cc5cc3Oc3ccc(cc3Cl)[C@@H](O[C@H]3C[C@](C)(N)[C@@H](O)[C@H](C)O3)[C@@H]3NC(=O)[C@H](NC(=O)[C@@H]5NC(=O)[C@H](CC(N)=O)NC(=O)[C@H](NCc5ccc(OCCCc6ccccc6)cc5)[C@H](O)c5ccc(c(Cl)c5)O4)c4ccc(O)c(c4)-c4c(O)cc(O)cc4[C@@H](C(=O)O)NC3=O)O[C@H](CO)[C@@H](O)[C@@H]2O)C[C@](C)(N)[C@H]1O [Example 21, N^1 -(p-(3-PHENYL-n-PROPOXY)BENZYL)DESLEUCYL-A82846B] | ≤ .06 | 4 | 32 | > 128 | 8 | 4 | 4 | 4 | 4 | ≤ .06
3 | C[C@@H]1O[C@@H](O[C@H]2[C@H](Oc3c4cc5cc3Oc3ccc(cc3Cl)[C@@H](O[C@H]3C[C@](C)(N)[C@@H](O)[C@H](C)O3)[C@@H]3NC(=O)[C@H](NC(=O)[C@@H]5NC(=O)[C@H](CC(N)=O)NC(=O)[C@H](NCc5ccc(-c6cc(C(F)(F)F)cc(C(F)(F)F)c6)cc5)[C@H](O)c5ccc(c(Cl)c5)O4)c4ccc(O)c(c4)-c4c(O)cc(O)cc4[C@@H](C(=O)O)NC3=O)O[C@H](CO)[C@@H](O)[C@@H]2O)C[C@](C)(N)[C@H]1O [Example 22, N^1 -(p-(3,5-BIS-(TRIFLUOROMETHYL)-PHENYL)BENZYL)-DESLEUCYL-A82846B] | ≤ .06 | 2 | 4.6 | 9.5 | 2 | 1 | 1 | 2 | 2 | ≤ .06
4 | CCCCCCCCOc1ccc(CN[C@H]2C(=O)N[C@@H](CC(N)=O)C(=O)N[C@H]3C(=O)N[C@H]4C(=O)N[C@H](C(=O)N[C@H](C(=O)O)c5cc(O)cc(O)c5-c5cc4ccc5O)[C@H](O[C@H]4C[C@](C)(N)[C@@H](O)[C@H](C)O4)c4ccc(c(Cl)c4)Oc4cc3cc(c4O[C@@H]3O[C@H](CO)[C@@H](O)[C@H](O)[C@H]3O[C@H]3C[C@](C)(N)[C@@H](O)[C@H](C)O3)Oc3ccc(cc3Cl)[C@H]2O)cc1 [Example 23, N^1 -(p-(n-OCTYLOXY)-BENZYL)DESLEUCYL-A82846B] | 1 | 4 | 9.2 | 11 | 8 | 4 | 4 | 4 | 8 | 0.25
5 | CSc1ccc(CN[C@H]2C(=O)N[C@@H](CC(N)=O)C(=O)N[C@H]3C(=O)N[C@H]4C(=O)N[C@H](C(=O)N[C@H](C(=O)O)c5cc(O)cc(O)c5-c5cc4ccc5O)[C@H](O[C@H]4C[C@](C)(N)[C@@H](O)[C@H](C)O4)c4ccc(c(Cl)c4)Oc4cc3cc(c4O[C@@H]3O[C@H](CO)[C@@H](O)[C@H](O)[C@H]3O[C@H]3C[C@](C)(N)[C@@H](O)[C@H](C)O3)Oc3ccc(cc3Cl)[C@H]2O)cc1 [Example 24, N^1 -(p-(METHYLTHIO)-BENZYL)DESLEUCYL-A82846B] | 8 | 32 | > 128 | > 128 | 64 | 16 | 32 | 32 | 32 | 8
6 | CSc1ccc(CN[C@H]2C(=O)N[C@@H](CC(N)=O)C(=O)N[C@H]3C(=O)N[C@H]4C(=O)N[C@H](C(=O)N[C@H](C(=O)O)c5cc(O)cc(O)c5-c5cc4ccc5O)[C@H](O[C@H]4C[C@](C)(N)[C@@H](O)[C@H](C)O4)c4ccc(c(Cl)c4)Oc4cc3cc(c4O[C@@H]3O[C@H](CO)[C@@H](O)[C@H](O)[C@H]3O[C@H]3C[C@](C)(NCc4ccc(SC)cc4)[C@@H](O)[C@H](C)O3)Oc3ccc(cc3Cl)[C@H]2O)cc1 [Example 25, N^1,N^DISACC -BIS(p-(METHYLTHIO)-BENZYL)DESLEUCYL-A82846B] | 1 | 4 | 2.6 | 6.7 | 8 | 4 | 4 | 8 | 8 | 4
7 | C[C@@H]1O[C@@H](O[C@@H]2c3ccc(c(Cl)c3)Oc3cc4cc(c3O[C@@H]3O[C@H](CO)[C@@H](O)[C@H](O)[C@H]3O[C@H]3C[C@](C)(NCc5ccc(-c6ccccc6)cc5)[C@@H](O)[C@H](C)O3)Oc3ccc(cc3Cl)[C@@H](O)[C@@H](NCc3ccc(-c5cc(C(F)(F)F)cc(C(F)(F)F)c5)cc3)C(=O)N[C@@H](CC(N)=O)C(=O)N[C@H]4C(=O)N[C@H]3C(=O)N[C@@H]2C(=O)N[C@H](C(=O)O)c2cc(O)cc(O)c2-c2cc3ccc2O)C[C@](C)(N)[C@H]1O [Example 26, N^1 -(p-(3,5-BIS-(TRIFLUOROMETHYL)-PHENYL)BENZYL)-N^DISACC -(p-PHENYLBENZYL)-DESLEUCYL-A82846B] | ≤ .06 | 4 | 6.1 | 5.7 | 4 | 4 | 2 | 4 | 8 | 0.25
8 | C[C@@H]1O[C@@H](O[C@@H]2c3ccc(c(Cl)c3)Oc3cc4cc(c3O[C@@H]3O[C@H](CO)[C@@H](O)[C@H](O)[C@H]3O[C@H]3C[C@](C)(NCc5ccc(-c6ccc(Cl)cc6)cc5)[C@@H](O)[C@H](C)O3)Oc3ccc(cc3Cl)[C@@H](O)[C@@H](NCc3ccc(-c5cc(C(F)(F)F)cc(C(F)(F)F)c5)cc3)C(=O)N[C@@H](CC(N)=O)C(=O)N[C@H]4C(=O)N[C@H]3C(=O)N[C@@H]2C(=O)N[C@H](C(=O)O)c2cc(O)cc(O)c2-c2cc3ccc2O)C[C@](C)(N)[C@H]1O [Example 27, N^1 -(p-(3,5-BIS-(TRIFLUOROMETHYL)-PHENYL)BENZYL)-N^DISACC -(p-(p-CHLOROPHENYL)BENZYL-DESLEUCYL-A82846B] | 32 | 32 | 6.1 | 9.5 | 32 | 32 | 8 | 8 | 64 | 64
